Source: patent US9464064B2, “HCV helicase inhibitors and methods of use thereof” (University of Kansas, priority 2011, dated 2016)

Molecular target: T1, HCV NS3 helicase NS3h_1b(con1) (Hepatitis C virus genotype 1b, UniProt Q9WMX2)
T1 construct: truncated C-terminally His-tagged NS3 proteins lacking the N-terminal protease, called NS3h; His-tag (C); made in house
Test: MBHA screen of NCI mechanistic set library at 20 μM (percent inhibition, compound interference)
Type: biochemical
Conditions: compounds at 20 μM; for Inh. (%) (Inhibition): calculated from Equation 1
Summary of the method: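 Molecular beacon-based DNA unwinding assay; compounds screened at 20 μM in triplicate, with DMSO-only negative and 500 nM dT20 positive controls. Fluorescence (ex 643/em 670 nm) was read before and 30 min after adding ATP to 1 mM. Percent inhibition came from the change relative to DMSO controls; interference from pre-ATP fluorescence versus DMSO controls.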

[1] = MBHA with DNA substrate, assay interference calculated with Equation 2
[2] = assay interference calculated with Equation 2 (fluorescence vs DMSO-only controls before ATP)

T1 sequence (Q9WMX2 1192-1657): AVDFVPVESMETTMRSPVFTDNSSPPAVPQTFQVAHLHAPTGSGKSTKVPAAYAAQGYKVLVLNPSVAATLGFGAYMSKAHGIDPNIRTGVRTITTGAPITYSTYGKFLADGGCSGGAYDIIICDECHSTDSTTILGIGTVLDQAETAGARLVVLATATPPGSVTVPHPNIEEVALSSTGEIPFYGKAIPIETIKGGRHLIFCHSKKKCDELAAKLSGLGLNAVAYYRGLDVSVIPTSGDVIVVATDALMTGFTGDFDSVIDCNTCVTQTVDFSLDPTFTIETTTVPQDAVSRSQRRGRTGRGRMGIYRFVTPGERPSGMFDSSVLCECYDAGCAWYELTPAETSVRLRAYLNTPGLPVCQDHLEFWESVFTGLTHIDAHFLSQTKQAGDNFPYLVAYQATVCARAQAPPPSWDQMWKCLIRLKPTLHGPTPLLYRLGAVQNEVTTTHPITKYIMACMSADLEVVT

Int.* (Ratio) (Interference) [1]	Inh. (%) (Inhibition) (MBHA with DNA substrate)	Inh. (%) (Inhibition) (MBHA with a DNA substrate)	Int.* (Ratio) (Interference) [2]	SMILES
0.81	−15.3			CN(C)c1ccc(/C=c2/sc3nc(=O)c(-c4ccccc4NC(=O)C(F)(F)F)nn3c2=O)cc1 [Compound 623095]
0.87	36.6			CC(=O)OCc1c2ccccc2c(C)c2c1cc(F)c1ccccc12 [Compound 623135]
		−21.1	0.98	CCCCCCCCCCCCCCCCCCOCC(COCCOCC[N+]1(CCCCCC(=O)[O-])CCCC1)Oc1ncccn1 (stereo not drawn) [Compound 623527]
		−3.5	0.97	COC(=O)c1ccccc1OCc1cc(=O)oc2ccc(C)cc12 [Compound 623637]
		−29.6	0.99	CCOC(=O)C1=C(O)CSC1=Nc1ccc(N=C2SCC(O)=C2C(=O)OCC)cc1 [Compound 623746]
		9.2	0.90	Cc1ccc(S(=O)(=O)SC/C=C/CSS(=O)(=O)c2ccc(C)cc2)cc1 [Compound 624158]
1.03	−8.2			O=S(=O)(O)SC/C=C/CSS(=O)(=O)O [Compound 624161]
		7.7	0.96	Cl.NCCSSCc1ccccc1CSSCCN [Compound 624169]
0.81	0.1			CCCCCCCCCCNCCSSCc1ccc(Cl)cc1.Cl [Compound 624206]
		−4.4	1.05	CC12CC(Br)(Br)C(=O)C3C1CCCC32 [Compound 624358]
0.86	−14.2			Cc1[nH]c(=O)nc(N/N=C/c2ccc(Cl)cc2)c1C(=O)Nc1ccc(Cl)cc1 [Compound 624947]
0.90	−7.5			C=CCOC1OC(CO[Si](C)(C)C(C)(C)C)C(OCc2ccccc2)C(OCc2ccccc2)C1OCc1ccccc1 (stereo not drawn) [Compound 624953]
1.05	−10.4			O=c1ncccn1C1OC(CO)C(O)C1F (stereo not drawn) [Compound 625355]
		12.0	0.93	Fc1cccc(Cl)c1C1SCc2nc3ccccc3n21 (stereo not drawn) [Compound 625483]
0.95	14.3			COc1ccc2cccc(C(=N)c3ccc(C)c4c3CCC4)c2c1 [Compound 625590]
1.09	−17.7			Cc1ccccc1NC(=O)/C=N/O [Compound 625639]
		−37.8	1.20	Cc1cc([N+](=O)[O-])ccc1Nc1cccc(Cl)c1C [Compound 625641]
0.94	−11.6			C1CN(c2nnc(N3CCC3)nn2)C1 [Compound 625748]
1.02	−16.6			COc1ccccc1Cc1nc(-c2ccccc2)nn(C2OC(COC(C)=O)C(OC(C)=O)C(OC(C)=O)C2OC(C)=O)c1=S (stereo not drawn) [Compound 625873]
0.97	15.1			COC1OC(COCc2ccc(Cl)cc2)C(OCc2ccc(Cl)cc2)C1O (stereo not drawn) [Compound 626120]
0.98	−2.2			O=Cc1cc([N+](=O)[O-])no1 [Compound 626433]
		−24.9	0.90	CC(C)C(=O)OCN(C)c1nc(N(C)COC(=O)C(C)C)nc(N(C)COC(=O)C(C)C)n1 [Compound 626551]
1.02	−18.3			COc1ccc(C2C(C)C(=O)C(C)C(c3ccc(OC)cc3)N2N=O)cc1 (stereo not drawn) [Compound 626734]

SMILES	Int.* (Ratio) (Interference) [1]	Inh. (%) (Inhibition) (MBHA with DNA substrate)	Inh. (%) (Inhibition) (MBHA with a DNA substrate)	Int.* (Ratio) (Interference) [2]
Fc1cccc(F)c1C1SCc2nc3ccccc3n21 (stereo not drawn) [Compound 625487]	1.01	−0.1		
